Measurements reported in PMC9234961 (Journal of Medicinal Chemistry, 2022).

Columns and labels:
kinases (468) [1] = target: kinases (468) (Homo sapiens, UniProt P12931); conditions: kinase SRC (Entrez SRC); compound concentration 1000 nM
kinases (468) [2] = target: kinases (468) (Homo sapiens, UniProt P42679); conditions: CTK (MATK); 1000 nM
kinases (468) [3] = target: kinases (468) (Homo sapiens, UniProt Q8IY84); conditions: NIM1 (MGC42105); 1000 nM
kinases (468) [4] = target: kinases (468) (Homo sapiens, UniProt P51451); conditions: BLK; 1000 nM
kinases (468) [5] = target: kinases (468) (Homo sapiens, UniProt P00533, T790M); conditions: EGFR(T790M); 1000 nM
kinases (468) [6] = target: kinases (468) (Homo sapiens, UniProt P36894); conditions: BMPR1A; 1000 nM
kinases (468) [7] = target: kinases (468) (Homo sapiens, UniProt Q16539); conditions: p38-alpha (MAPK14); 1000 nM
kinases (468) [8] = target: kinases (468) (Homo sapiens, UniProt Q6ZN16); conditions: MAP3K15; 1000 nM
kinases (468) [9] = target: kinases (468) (Homo sapiens, UniProt P08631); conditions: HCK; 1000 nM
kinases (468) [10] = target: kinases (468) (Homo sapiens, UniProt P43405); conditions: kinase SYK (Entrez SYK); compound concentration 1000 nM
kinases (468) [11] = target: kinases (468) (Homo sapiens, UniProt Q9BYT3); conditions: kinase STK33 (Entrez STK33); compound concentration 1000 nM
kinases (468) [12] = target: kinases (468) (Homo sapiens, UniProt Q9Y2H1); conditions: NDR2 (STK38L); 1000 nM
kinases (468) [13] = target: kinases (468) (Homo sapiens, UniProt P08922); conditions: kinase ROS1 (Entrez ROS1); compound concentration 1000 nM
kinases (468) [14] = target: kinases (468) (Homo sapiens, UniProt Q9UEE5); conditions: DRAK1 (STK17A); 1000 nM
kinases (468) [15] = target: kinases (468) (Homo sapiens, UniProt P78356); conditions: PIP5K2B (PIP4K2B); 1000 nM
kinases (468) [16] = target: kinases (468) (Homo sapiens, UniProt P42685); conditions: FRK; 1000 nM
kinases (468) [17] = target: kinases (468) (Homo sapiens, UniProt P07949, V804L); conditions: kinase RET(V804L) (Entrez RET); compound concentration 1000 nM
kinases (468) [18] = target: kinases (468) (Homo sapiens, UniProt P36896); conditions: ACVR1B; 1000 nM
kinases (468) [19] = target: kinases (468) (Homo sapiens, UniProt Q9Y6M4); conditions: CSNK1G3; 1000 nM
kinases (468) [20] = target: kinases (468) (Homo sapiens, UniProt O14733); conditions: MKK7 (MAP2K7); 1000 nM
kinases (468) [21] = target: kinases (468) (Homo sapiens, UniProt Q9NRH2); conditions: kinase SNRK (Entrez SNRK); compound concentration 1000 nM
kinases (468) [22] = target: kinases (468) (Homo sapiens, UniProt Q9UM73); conditions: ALK; 1000 nM
kinases (468) [23] = target: kinases (468) (Homo sapiens, UniProt Q8NE63); conditions: HIPK4; 1000 nM
kinases (468) [24] = target: kinases (468) (Homo sapiens, UniProt O14920); conditions: IKK-beta (IKBKB); 1000 nM
kinases (468) [25] = target: kinases (468) (Homo sapiens, UniProt Q6P3R8); conditions: NEK5; 1000 nM
kinases (468) [26] = target: kinases (468) (Homo sapiens, UniProt P36888, D835H); conditions: FLT3(D835H); 1000 nM
kinases (468) [27] = target: kinases (468) (Homo sapiens, UniProt P16234); conditions: PDGFRA; 1000 nM
kinases (468) [28] = target: kinases (468) (Homo sapiens, UniProt Q8NEV4); conditions: MYO3A; 1000 nM
kinases (468) [29] = target: kinases (468) (Homo sapiens, UniProt P30530); conditions: AXL; 1000 nM
kinases (468) [30] = target: kinases (468) (Homo sapiens, UniProt O15146); conditions: MUSK; 1000 nM
kinases (468) [31] = target: kinases (468) (Homo sapiens, UniProt O94804); conditions: LOK (STK10); 1000 nM
kinases (468) [32] = target: kinases (468) (Homo sapiens, UniProt O15197); conditions: EPHB6; 1000 nM
kinases (468) [33] = target: kinases (468) (Homo sapiens, UniProt P09619); conditions: PDGFRB; 1000 nM
kinases (468) [34] = target: kinases (468) (Homo sapiens, UniProt Q96J92); conditions: kinase WNK4 (Entrez WNK4); compound concentration 1000 nM
kinases (468) [35] = target: kinases (468) (Homo sapiens, UniProt Q15835); conditions: GRK1; 1000 nM

kinases (468) (Homo sapiens, UniProt O14920), sequence (O14920 whole entry): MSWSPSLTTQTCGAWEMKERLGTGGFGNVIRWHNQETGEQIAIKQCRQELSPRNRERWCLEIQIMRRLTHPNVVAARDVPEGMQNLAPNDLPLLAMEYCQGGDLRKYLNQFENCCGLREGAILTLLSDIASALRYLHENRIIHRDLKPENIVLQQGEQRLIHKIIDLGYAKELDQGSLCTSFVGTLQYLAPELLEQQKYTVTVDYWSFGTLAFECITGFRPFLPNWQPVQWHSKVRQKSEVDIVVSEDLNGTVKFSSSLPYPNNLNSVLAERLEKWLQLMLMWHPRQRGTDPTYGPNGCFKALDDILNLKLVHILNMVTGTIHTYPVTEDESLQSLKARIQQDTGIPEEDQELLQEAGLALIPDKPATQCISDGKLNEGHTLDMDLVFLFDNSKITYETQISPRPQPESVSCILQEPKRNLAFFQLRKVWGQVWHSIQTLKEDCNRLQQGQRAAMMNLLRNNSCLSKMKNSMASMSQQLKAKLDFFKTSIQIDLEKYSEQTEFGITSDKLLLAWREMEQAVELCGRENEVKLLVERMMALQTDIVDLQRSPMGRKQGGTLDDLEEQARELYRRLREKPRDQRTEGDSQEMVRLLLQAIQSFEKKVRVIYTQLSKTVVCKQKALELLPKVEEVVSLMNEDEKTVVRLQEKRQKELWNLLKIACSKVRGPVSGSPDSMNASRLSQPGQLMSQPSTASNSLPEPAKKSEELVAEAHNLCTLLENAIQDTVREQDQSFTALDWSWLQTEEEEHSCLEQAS
kinases (468) (Homo sapiens, UniProt O94804), sequence (O94804 whole entry): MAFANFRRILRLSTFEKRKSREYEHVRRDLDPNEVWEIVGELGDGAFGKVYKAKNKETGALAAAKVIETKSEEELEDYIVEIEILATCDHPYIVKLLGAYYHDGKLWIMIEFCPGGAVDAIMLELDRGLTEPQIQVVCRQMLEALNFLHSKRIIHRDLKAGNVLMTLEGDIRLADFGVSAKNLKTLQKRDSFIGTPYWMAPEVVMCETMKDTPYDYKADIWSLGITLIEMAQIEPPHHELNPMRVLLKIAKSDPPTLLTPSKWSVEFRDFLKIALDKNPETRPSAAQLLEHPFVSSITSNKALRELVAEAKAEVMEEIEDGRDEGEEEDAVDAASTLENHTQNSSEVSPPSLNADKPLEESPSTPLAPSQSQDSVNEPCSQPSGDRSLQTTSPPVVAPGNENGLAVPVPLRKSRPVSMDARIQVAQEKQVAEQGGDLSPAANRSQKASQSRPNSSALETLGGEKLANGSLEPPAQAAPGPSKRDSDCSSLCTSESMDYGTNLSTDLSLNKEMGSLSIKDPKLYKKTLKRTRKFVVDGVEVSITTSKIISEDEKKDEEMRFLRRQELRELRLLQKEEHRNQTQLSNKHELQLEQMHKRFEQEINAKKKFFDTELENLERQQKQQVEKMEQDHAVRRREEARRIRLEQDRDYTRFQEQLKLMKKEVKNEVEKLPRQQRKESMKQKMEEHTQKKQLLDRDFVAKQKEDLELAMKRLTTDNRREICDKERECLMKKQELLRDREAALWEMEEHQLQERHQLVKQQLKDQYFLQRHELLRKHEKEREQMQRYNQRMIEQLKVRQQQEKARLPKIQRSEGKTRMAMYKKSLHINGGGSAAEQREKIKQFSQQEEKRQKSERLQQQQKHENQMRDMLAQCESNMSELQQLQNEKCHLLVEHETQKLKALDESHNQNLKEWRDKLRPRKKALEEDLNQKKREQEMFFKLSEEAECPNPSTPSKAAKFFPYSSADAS
kinases (468) (Homo sapiens, UniProt Q9Y2H1), sequence (Q9Y2H1 whole entry): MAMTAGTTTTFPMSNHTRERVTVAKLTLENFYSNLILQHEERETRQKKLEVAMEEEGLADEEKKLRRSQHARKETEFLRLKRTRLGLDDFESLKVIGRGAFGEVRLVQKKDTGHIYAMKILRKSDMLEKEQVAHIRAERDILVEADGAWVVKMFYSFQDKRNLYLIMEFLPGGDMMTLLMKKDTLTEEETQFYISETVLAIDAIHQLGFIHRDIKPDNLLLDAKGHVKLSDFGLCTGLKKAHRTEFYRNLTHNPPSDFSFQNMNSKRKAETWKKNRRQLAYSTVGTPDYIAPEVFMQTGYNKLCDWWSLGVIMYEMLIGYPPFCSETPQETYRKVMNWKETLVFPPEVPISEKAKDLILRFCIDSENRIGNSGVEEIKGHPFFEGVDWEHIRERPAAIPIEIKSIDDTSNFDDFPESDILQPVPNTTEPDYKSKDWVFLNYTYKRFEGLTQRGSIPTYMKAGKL
kinases (468) (Homo sapiens, UniProt P51451), sequence (P51451 whole entry): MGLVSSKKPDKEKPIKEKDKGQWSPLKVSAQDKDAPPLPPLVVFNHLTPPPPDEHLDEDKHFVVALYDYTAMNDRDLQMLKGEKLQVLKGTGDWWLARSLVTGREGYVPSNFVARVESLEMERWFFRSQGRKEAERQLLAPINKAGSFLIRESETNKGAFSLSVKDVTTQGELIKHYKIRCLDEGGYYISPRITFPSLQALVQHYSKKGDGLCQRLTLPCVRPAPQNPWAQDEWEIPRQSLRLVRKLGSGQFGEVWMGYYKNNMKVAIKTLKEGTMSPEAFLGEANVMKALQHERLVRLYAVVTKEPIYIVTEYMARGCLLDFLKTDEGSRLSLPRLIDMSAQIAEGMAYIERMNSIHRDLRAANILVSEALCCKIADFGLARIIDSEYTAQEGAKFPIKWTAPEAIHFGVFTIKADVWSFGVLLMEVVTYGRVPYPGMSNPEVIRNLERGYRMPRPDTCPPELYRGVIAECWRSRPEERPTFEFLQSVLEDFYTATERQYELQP
kinases (468) (Homo sapiens, UniProt P78356), sequence (P78356 whole entry): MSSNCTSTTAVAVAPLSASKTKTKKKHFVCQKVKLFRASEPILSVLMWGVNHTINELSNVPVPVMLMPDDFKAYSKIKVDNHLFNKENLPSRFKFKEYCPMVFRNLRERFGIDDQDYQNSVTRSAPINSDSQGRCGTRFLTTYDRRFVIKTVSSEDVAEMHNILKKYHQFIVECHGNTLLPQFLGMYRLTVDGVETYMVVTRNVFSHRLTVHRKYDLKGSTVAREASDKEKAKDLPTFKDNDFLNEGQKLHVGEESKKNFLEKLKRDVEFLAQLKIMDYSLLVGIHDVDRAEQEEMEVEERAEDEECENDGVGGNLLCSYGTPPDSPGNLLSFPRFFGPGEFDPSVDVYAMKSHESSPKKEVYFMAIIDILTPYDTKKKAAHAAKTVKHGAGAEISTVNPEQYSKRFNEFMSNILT
kinases (468) (Homo sapiens, UniProt Q8NEV4), sequence (Q8NEV4 whole entry): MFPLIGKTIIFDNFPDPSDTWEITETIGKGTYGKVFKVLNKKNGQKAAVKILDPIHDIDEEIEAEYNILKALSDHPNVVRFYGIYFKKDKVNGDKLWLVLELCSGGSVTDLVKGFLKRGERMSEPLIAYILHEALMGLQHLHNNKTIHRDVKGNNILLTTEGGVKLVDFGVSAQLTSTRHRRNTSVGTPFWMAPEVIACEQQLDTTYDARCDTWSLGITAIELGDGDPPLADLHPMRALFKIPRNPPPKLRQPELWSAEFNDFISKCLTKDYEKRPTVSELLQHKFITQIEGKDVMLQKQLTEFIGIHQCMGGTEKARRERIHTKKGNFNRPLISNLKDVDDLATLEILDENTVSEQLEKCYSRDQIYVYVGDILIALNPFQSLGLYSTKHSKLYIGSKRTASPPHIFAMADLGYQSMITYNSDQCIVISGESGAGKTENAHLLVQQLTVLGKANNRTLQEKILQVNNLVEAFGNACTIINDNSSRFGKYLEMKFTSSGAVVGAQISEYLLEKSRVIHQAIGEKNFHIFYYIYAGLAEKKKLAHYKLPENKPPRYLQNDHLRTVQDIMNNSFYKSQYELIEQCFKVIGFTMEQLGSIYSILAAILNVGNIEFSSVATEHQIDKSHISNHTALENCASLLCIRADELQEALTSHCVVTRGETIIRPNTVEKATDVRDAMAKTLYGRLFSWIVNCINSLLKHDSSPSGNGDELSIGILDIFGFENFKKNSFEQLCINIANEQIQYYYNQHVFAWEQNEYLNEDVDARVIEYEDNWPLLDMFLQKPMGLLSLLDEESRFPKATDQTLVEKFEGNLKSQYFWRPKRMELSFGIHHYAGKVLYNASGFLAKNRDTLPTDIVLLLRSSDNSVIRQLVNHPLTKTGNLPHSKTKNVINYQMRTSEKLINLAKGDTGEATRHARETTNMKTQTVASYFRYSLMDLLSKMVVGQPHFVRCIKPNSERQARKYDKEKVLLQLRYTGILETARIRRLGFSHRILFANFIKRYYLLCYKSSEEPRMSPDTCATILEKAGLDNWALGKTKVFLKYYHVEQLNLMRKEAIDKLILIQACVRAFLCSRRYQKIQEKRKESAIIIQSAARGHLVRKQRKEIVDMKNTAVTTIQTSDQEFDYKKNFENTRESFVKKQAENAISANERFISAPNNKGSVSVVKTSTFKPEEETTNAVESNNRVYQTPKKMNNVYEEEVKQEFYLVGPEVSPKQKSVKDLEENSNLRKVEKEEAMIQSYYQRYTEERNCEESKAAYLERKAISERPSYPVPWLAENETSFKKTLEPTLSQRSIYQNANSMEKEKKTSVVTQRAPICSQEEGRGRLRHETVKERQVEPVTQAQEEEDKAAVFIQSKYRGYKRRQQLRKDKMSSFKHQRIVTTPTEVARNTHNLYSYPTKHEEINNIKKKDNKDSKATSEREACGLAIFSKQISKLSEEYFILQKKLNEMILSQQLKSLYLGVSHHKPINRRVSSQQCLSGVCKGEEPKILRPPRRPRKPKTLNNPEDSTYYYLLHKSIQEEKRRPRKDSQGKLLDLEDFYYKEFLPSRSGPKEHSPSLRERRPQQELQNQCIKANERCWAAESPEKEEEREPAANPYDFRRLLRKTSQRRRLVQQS

SMILES: C[C@H]1C[C@@H](O)CN(c2ncc(Cl)c(Nc3ccc4c(c3)c3c(c(=O)n4C)OCC(F)(F)[C@H](C4CC4)N3)n2)C1 [CCT373566_9A]
- Percent Control (kinases (468) [1]): 100%
- Percent Control (kinases (468) [2]): 100%
- Percent Control (kinases (468) [3]): 90%
- Percent Control (kinases (468) [4]): 99%
- Percent Control (kinases (468) [5]): 100%
- Percent Control (kinases (468) [6]): 100%
- Percent Control (kinases (468) [7]): 96%
- Percent Control (kinases (468) [8]): 99%
- Percent Control (kinases (468) [9]): 98%
- Percent Control (kinases (468) [10]): 98%
- Percent Control (kinases (468) [11]): 100%
- Percent Control (kinases (468) [12]): 98%
- Percent Control (kinases (468) [13]): 100%
- Percent Control (kinases (468) [14]): 99%
- Percent Control (kinases (468) [15]): 100%
- Percent Control (kinases (468) [16]): 100%
- Percent Control (kinases (468) [17]): 100%
- Percent Control (kinases (468) [18]): 100%
- Percent Control (kinases (468) [19]): 100%
- Percent Control (kinases (468) [20]): 91%
- Percent Control (kinases (468) [21]): 93%
- Percent Control (kinases (468) [22]): 98%
- Percent Control (kinases (468) [23]): 96%
- Percent Control (kinases (468) [24]): 91%
- Percent Control (kinases (468) [25]): 100%
- Percent Control (kinases (468) [26]): 90%
- Percent Control (kinases (468) [27]): 95%
- Percent Control (kinases (468) [28]): 100%
- Percent Control (kinases (468) [29]): 95%
- Percent Control (kinases (468) [30]): 100%
- Percent Control (kinases (468) [31]): 100%
- Percent Control (kinases (468) [32]): 93%
- Percent Control (kinases (468) [33]): 98%
- Percent Control (kinases (468) [34]): 42%
- Percent Control (kinases (468) [35]): 100%
